According to patent publication US10981932B2, “Macrocyclic indole derivatives” (Bayer Aktiengesellschaft, priority 2016, dated 2021):
Where a name gives a salt, the structure may show the parent alone. Read-outs that look alike come from different tables or passages of the source.

Legend:
MCL-1 = MCL-1 (Homo sapiens, UniProt Q07820); experiment: Protein-protein interaction assay MCL-1/Noxa BH3 peptide (MCL-1 assay), TR-FRET; assay type: binding; settings: MBP-MCL-1 / Noxa BH3-derived peptide, median
Chain of MCL-1 (Q07820 whole entry): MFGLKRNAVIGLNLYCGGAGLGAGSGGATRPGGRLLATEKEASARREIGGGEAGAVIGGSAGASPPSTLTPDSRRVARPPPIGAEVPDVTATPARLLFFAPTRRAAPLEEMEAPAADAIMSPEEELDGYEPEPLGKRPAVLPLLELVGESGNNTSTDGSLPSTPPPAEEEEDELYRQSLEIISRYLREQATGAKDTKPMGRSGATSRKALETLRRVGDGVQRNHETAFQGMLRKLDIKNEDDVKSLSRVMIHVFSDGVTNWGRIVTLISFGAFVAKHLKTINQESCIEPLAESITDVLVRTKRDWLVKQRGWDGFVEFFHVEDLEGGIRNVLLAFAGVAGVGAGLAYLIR
Method in brief: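 Inhibition values were normalized between DMSO controls with all reagents and controls lacking MCL-1. The binding competition used 1 nM MBP-MCL-1 in pH 7 Tris buffer containing 50 mM KF and 100 mM NaCl, with a 10 min compound preincubation at 22 °C.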

SUDHL5 [1] = experiment: Induction of caspase-3/7 activity (Caspase-Glo 3/7), SUDHL5; assay type: cell-based; settings: caspase-3/7 induction, SUDHL5 cells, 3 h treatment, median
Method in brief: (§1)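 Apoptosis induction measured as caspase-3/7 activity (Caspase-Glo 3/7) in DLBCL lines after 3 h treatment at 37 °C; EC50 derived relative to the reference compound's maximal induction, with C0 fixed at 1.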

SUDHL10 [2] = experiment: Induction of caspase-3/7 activity (Caspase-Glo 3/7), SUDHL10; assay type: cell-based; settings: caspase-3/7 induction, SUDHL10 cells, 3 h treatment, median
Method in brief: as §1

SUDHL5 [3] = experiment: Anti-proliferative effect (CellTiter-Glo, 72 h), SUDHL5; assay type: cell-based; settings: SUDHL5 cells, antiproliferation, median, read-out: Antiproli SUDHL5 [M] (median)
Method in brief: (§2)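 Luminescence from CellTiter-Glo, read 10 min after reagent addition, reports viable cell content after 72 h of compound treatment at 37 °C. A reference plate read at day 0 gives the starting baseline.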

SUDHL10 [4] = experiment: Anti-proliferative effect (CellTiter-Glo, 72 h), SUDHL10; assay type: cell-based; settings: SUDHL10 cells, antiproliferation, median, read-out: Antiproli SUDHL10 [M] (median)
Method in brief: as §2

A2780 = experiment: Anti-proliferative effect (CellTiter-Glo, 72 h), A2780; assay type: cell-based; settings: A2780 cells, median, read-out: IC50 antiproliferation assay A2780 [M] (median)
Method in brief: as §2

SUDHL5 [5] = experiment: Induction of cytotoxicity (CellTiter-Glo, 5 h), SUDHL5
SUDHL10 [6] = experiment: Induction of cytotoxicity (CellTiter-Glo, 5 h), SUDHL10
[7] = Homo sapiens, SU-DHL-5, 72 h, 72 h incubation
[8] = Homo sapiens, SU-DHL10, 72 h, 72 h incubation
[9] = Homo sapiens, SU-DHL-5, 5 h, read-out: Cytotox SUDHL5 [M] (median), SUDHL5 cells, cytotoxicity induction, CellTiter-Glo, 5 h incubation, median
[10] = Homo sapiens, SU-DHL10, 5 h, read-out: Cytotox SUDHL10 [M] (median), SUDHL10 cells, cytotoxicity induction, CellTiter-Glo, 5 h incubation, median
[11] = read-out: Cytotox SUDHL5 [M] (median), SUDHL5 cells, cytotoxicity induction, CellTiter-Glo, 5 h incubation, median
[12] = read-out: Cytotox SUDHL10 [M] (median), SUDHL10 cells, cytotoxicity induction, CellTiter-Glo, 5 h incubation, median

SMILES | IC50 (MCL-1) [µM] | EC50 (SUDHL5 [1]; Homo sapiens, SU-DHL-5, 3 h) [µM] | EC50 (SUDHL10 [2]; Homo sapiens, SU-DHL10, 3 h) [µM] | IC50 (SUDHL5 [3]; [7]) [M] | IC50 (SUDHL10 [4]; [8]) [M] | IC50 (A2780; Homo sapiens, A2780, 72 h) [M] | EC50 (SUDHL5 [1]) [µM] | EC50 (SUDHL10 [2]) [µM] | IC50 (SUDHL5 [3]; 72 h incubation) [M] | IC50 (SUDHL10 [4]; 72 h incubation) [M] | IC50 (A2780) [M] | IC50 (SUDHL5 [5]; [9]) [M] | IC50 (SUDHL10 [6]; [10]) [M] | IC50 (SUDHL5 [5]; [11]) [M] | IC50 (SUDHL10 [6]; [12]) [M] | IC50 (SUDHL5 [3]; 72 h) [M] | IC50 (SUDHL10 [4]; 72 h) [M] | IC50 (SUDHL5 [5]; read-out: Cytotox SUDHL5 [M] (median), SUDHL5 cells, cytotoxicity induction, CellTiter-Glo, 5 h, median) | IC50 (SUDHL10 [6]; read-out: Cytotox SUDHL10 [M] (median), SUDHL10 cells, cytotoxicity induction, CellTiter-Glo, 5 h, median)
COCc1nn(C)c2c1-c1cccc3c(CCCOc4cccc5ccccc45)c(C(=O)O)n(c13)CCCCN(C)C2 (single isomer, unassigned; enantiomer 2) [Example 185, 3-(methoxymethyl)-1,14-dimethyl-7-[3-(naphthalen-1-yloxy)propyl]-10,11,12,13,14,15-hexahydro-1H-pyrazolo[3′,4′:8,9][1,6]diazacycloundecino[10,11,1-hi]indole-8-carboxylic acid —N-ethylethanamine Salt (Enantiomer 2)] | 0.211 |  |  |  |  |  | > 33 | > 33 | 1.98e-05 | 8.53e-06 | 1.88e-05 |  |  | 2.75e-05 | > 3.3e-05 |  |  |  | 
Cc1ccc2c(CCCOc3cccc4ccccc34)c(C(=O)O)n3c2c1-c1c(C)nn(C)c1COCCCC3 (single isomer, unassigned; enantiomer 1) [Example 028, 1,3,4-trimethyl-7-[3-(naphthalen-1-yloxy)propyl]-1,10,11,12,13,15-hexahydropyrazolo[4′,3′:9,10][1,6]oxazacycloundecino[8,7,6-hi]indole-8-carboxylic acid-N-ethylethanamine Salt (Enantiomer 1)] | 0.234 | > 33 | > 33 | 2.97e-05 | 1.81e-05 | 1.94e-05 |  |  |  |  |  | > 3.3e-05 | > 3.3e-05 |  |  |  |  |  | 
Cn1nc(CN2CC3(COC3)C2)c2c1COCCCCn1c(C(=O)O)c(CCCOc3cccc4ccccc34)c3cccc-2c31 (single isomer, unassigned; enantiomer 1) [Example 344, 1-methyl-7-[3-(naphthalen-1-yloxy)propyl]-3-(2-oxa-6-azaspiro[3.3]hept-6-ylmethyl)-1,10,11,12,13,15-hexahydropyrazolo[4′,3′:9,10][1,6]oxazacycloundecino[8,7,6-hi]indole-8-carboxylic acid-N-ethylethanamine Salt (Enantiomer 1)] | 0.433 |  |  |  |  |  | > 33 | > 33 |  |  | > 3.3e-05 |  |  |  |  | 2.08e-05 | 1.44e-05 | > 3.3e-05 | > 3.3e-05
CCCc1nn(C)c2c1-c1c(C)ccc3c(CCCOc4cccc5ccccc45)c(C(=O)O)n(c13)CCCCOC2 (single isomer, unassigned; enantiomer 2) [Example 189, 1,4-dimethyl-7-[3-(naphthalen-1-yloxy)propyl]-3-propyl-1,10,11,12,13,15-hexahydropyrazolo[4′3′:9,10][1,6]oxazacycloundecino[8,7,6-hi]indole-8-caboxylic acid-N-ethylethanamine Salt (Enantiomer 2)] | 0.142 |  |  |  |  |  | > 33 | > 33 | 1.09e-05 | 2.01e-05 | 1.78e-05 |  |  | 2.86e-05 | > 3.3e-05 |  |  |  | 
CCn1nc2c(c1C1CC1)-c1cccc3c(CCCOc4cccc5ccccc45)c(C(=O)O)n(c13)CCCCOC2 (single isomer, unassigned; enantiomer 2) [Example 083, 3-cyclopropyl-2-ethyl-7-[3-(naphthalen-1-yloxy)propyl]-2,10,11,12,13,15-hexahydropyrazolo[4′,3′:9,10][1,6]oxazacycloundecino[8,7,6-hi]indole-8-carboxylic acid-N-ethylethanamine Salt (Enantiomer 2)] | 0.172 |  |  |  |  |  | > 33 | > 33 | 2.68e-05 | 1.47e-05 | 1.38e-05 |  |  | > 3.3e-05 | > 3.3e-05 |  |  |  | 
CCNCc1nn(C)c2c1-c1cccc3c(CCCOc4cccc5ccccc45)c(C(=O)O)n(c13)CCCCOC2 (racemic) [Example 156, (rac)-3-[(ethylamino)methyl]-1-methyl-7-[3-(naphthalen-1-yloxy)propyl]-1,10,11,12,13,15-hexahydropyrazolo[4′,3′:9,10][1,6]oxazacycloundecino[8,7,6-hi]indole-8-carboxylic Acid] | 0.152 | > 33 | > 33 | > 3.3e-05 | 2.23e-05 | > 3.3e-05 |  |  |  |  |  | > 3.3e-05 | > 3.3e-05 |  |  |  |  |  | 

The next molecules have a lower IC50 (MCL-1) than those just listed; values first:

IC50 (MCL-1) [µM] | EC50 (SUDHL5 [1]; Homo sapiens, SU-DHL-5, 3 h) [µM] | EC50 (SUDHL10 [2]; Homo sapiens, SU-DHL10, 3 h) [µM] | IC50 (SUDHL5 [3]; [7]) [M] | IC50 (SUDHL10 [4]; [8]) [M] | IC50 (A2780; Homo sapiens, A2780, 72 h) [M] | EC50 (SUDHL5 [1]) [µM] | EC50 (SUDHL10 [2]) [µM] | IC50 (SUDHL5 [3]; 72 h incubation) [M] | IC50 (SUDHL10 [4]; 72 h incubation) [M] | IC50 (A2780) [M] | SMILES | IC50 (SUDHL5 [5]; [9]) [M] | IC50 (SUDHL10 [6]; [10]) [M] | IC50 (SUDHL5 [5]; [11]) [M] | IC50 (SUDHL10 [6]; [12]) [M] | IC50 (SUDHL5 [3]; 72 h) [M] | IC50 (SUDHL10 [4]; 72 h) [M] | IC50 (SUDHL5 [5]; read-out: Cytotox SUDHL5 [M] (median), SUDHL5 cells, cytotoxicity induction, CellTiter-Glo, 5 h, median) | IC50 (SUDHL10 [6]; read-out: Cytotox SUDHL10 [M] (median), SUDHL10 cells, cytotoxicity induction, CellTiter-Glo, 5 h, median)
0.00578 | 6.18 | 19.3 | 5.37e-06 | 1.2e-05 | > 3.3e-05 |  |  |  |  |  | CCc1nn(C)c2c1-c1c(C)ccc3c(CCCOc4cccc5c4CCCC5)c(C(=O)O)n(c13)CCCCOC2 (racemic) [Example 270, (rac)-12-ethyl-10,13-dimethyl-1-(3-((5,6,7,8-tetrahydronaphthalen-1-yl)oxy)propyl)-4,5,6,7,9,10-hexahydropyrazolo[4′,3′:9,10][1]oxa[6]azacycloundecino[8,7,6-hi]indole-2-carboxylic Acid] | 5.39e-06 | 2.19e-05 |  |  |  |  |  | 
0.12 |  |  |  |  |  | > 33 | > 33 | 3.11e-05 | 1.64e-05 | 2.58e-05 | Cc1c2c(nn1C1CC1)COCCCCn1c(C(=O)O)c(CCCOc3cccc4ccccc34)c3cccc-2c31 (single isomer, unassigned; enantiomer 2) [Example 094, 2-cyclopropyl-3-methyl-7-[3-(naphthalen-1-yloxy)propyl]-2,10,11,12,13,15-hexahydropyrazolo[4′,3′:9,10][1,6]oxazacycloundecino[8,7,6-hi]indole-8-carboxylic acid-N-ethylethanamine Salt (Enantiomer 2)] |  |  | > 3.3e-05 | > 3.3e-05 |  |  |  | 
0.097 | > 33 | > 33 | > 3.3e-05 | 1.41e-05 | > 3.3e-05 |  |  |  |  |  | Cn1nc2c(c1CN1CCOCC1)-c1cccc3c(CCCOc4cccc5ccccc45)c(C(=O)O)n(c13)CCOCCOC2 (racemic) [Example 087] | > 3.3e-05 | > 3.3e-05 |  |  |  |  |  | 
0.00268 | 8.27 | 23.9 | 1.01e-05 | 9.89e-06 | 1.49e-05 |  |  |  |  |  | COCc1c2c(nn1C)COCCCCn1c(C(=O)O)c(CCCOc3cccc4c3CCCC4)c3cccc-2c31 (racemic) [Example 105, (rac)-3-(methoxymethyl)-2-methyl-7-[3-(5,6,7,8-tetrahydronaphthalen-1-yloxy)propyl]-2,10,11,12,13,15-hexahydropyrazolo[4′,3′:9,10][1,6]oxazacycloundecino[8,7,6-hi]indole-8-carboxylic Acid] | 7.19e-06 | 1.92e-05 |  |  |  |  |  | 
0.0484 |  | > 33 | 6.23e-06 | 5.15e-06 | 2.84e-05 | > 33 |  |  |  |  | O=C(O)c1c(CCCOc2cccc3ccccc23)c2cccc3c2n1CCCCOCc1nn2c(c1-3)COCC2 (single isomer, unassigned) [Example 251, 1-[3-(naphthalen-1-yloxy)propyl]-4,5,6,7,12,13-hexahydro-9H,15H-[1,4]oxazino[4″,3″:1′,5]pyrazolo[4′,3′:9,10][1,6]oxazacycloundecino[8,7,6-hi]indole-2-carboxylic acid-N-ethylethanamine Salt] |  | > 3.3e-05 | > 3.3e-05 |  |  |  |  | 
0.00708 | 6.16 | 20.2 | 8.25e-06 | 2.06e-06 | 2.48e-05 |  |  |  |  |  | Cc1c2c(nn1C1CC1)COCCCCn1c(C(=O)O)c(CCCOc3cccc4ccccc34)c3cccc-2c31 (racemic) [Example 092, (rac)-2-cyclopropyl-3-methy-7-[3-(naphthalen-1-yloxy)propyl]-2,10,11,12,13,15-hexahydropyrazolo[4′,3′:9,10][1,6]oxazacycloundecino[8,7,6-hi]indole-8-carboxylic Acid] | 6.75e-06 | 2.23e-05 |  |  |  |  |  | 
